Reference: PubChem BioAssay (NCI)
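96-well plates; 48 h exposure; 5 concentrations. Endpoints by linear interpolation between flanking doses. Not reached: highest tested concentration assigned. TGI marks complete inhibition of growth.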 Where a SMILES comes first, the peptide text is derived from it. [ ]: non-standard residue; d: D form. The star is where a group is joined. Phe(4-NO2) = N[CH](Cc1ccc([N+](=O)[O-])cc1)C(=O)O; Boc = CC(C)(C)OC(=O)*

Assays:
Test in all cases: growth of human tumour cells (NCI), 48 h
[1] = test system: TK-10 renal
[2] = test system: SF-539 CNS
[3] = test system: HCT-116 colon
[4] = test system: OVCAR-4 ovarian
[5] = test system: HOP-62 NSCLC
[6] = test system: HCT-15 colon
[7] = test system: RPMI-8226 leukemia
[8] = test system: HS 578T breast
[9] = test system: UACC-257 melanoma
[10] = test system: OVCAR-3 ovarian
[11] = test system: SNB-75 CNS
[12] = test system: SR leukemia
[13] = test system: EKVX NSCLC
[14] = test system: ACHN renal
[15] = test system: MALME-3M melanoma
[16] = test system: HT29 colon
[17] = test system: NCI/ADR-RES ovarian
[18] = test system: NCI-H460 lung
[19] = test system: SK-MEL-2 melanoma
[20] = test system: SK-MEL-5 melanoma

SMILES: NNc1ncc2c(n1)-c1ccccc1OC2
- TGI [1]: > 100 µM
- TGI [2]: > 100 µM
- TGI [3]: > 100 µM
- TGI [4]: > 100 µM
- TGI [5]: > 100 µM
- TGI [6]: > 100 µM
- TGI [7]: > 100 µM
- TGI [8]: > 100 µM
- TGI [9]: > 100 µM
- TGI [10]: > 100 µM
- TGI [11]: > 100 µM
- TGI [12]: > 100 µM
- TGI [13]: > 100 µM
- TGI [14]: > 100 µM
- TGI [15]: > 100 µM
- TGI [16]: > 100 µM
- TGI [17]: > 100 µM
- TGI [18]: > 100 µM
- TGI [19]: > 100 µM
- TGI [20]: > 100 µM

SMILES: COCOc1c(C(OCOC)c2cnc(Sc3ccccc3)n2C)ccc(OC)c1OC (stereo not given)
- TGI [1]: > 100 µM
- TGI [2]: > 100 µM
- TGI [3]: > 100 µM
- TGI [4]: > 100 µM
- TGI [5]: > 100 µM
- TGI [6]: > 100 µM
- TGI [7]: > 100 µM
- TGI [8]: > 100 µM
- TGI [9]: > 100 µM
- TGI [10]: > 100 µM
- TGI [11]: > 100 µM
- TGI [12]: > 100 µM
- TGI [13]: > 100 µM
- TGI [14]: > 100 µM
- TGI [15]: > 100 µM
- TGI [16]: > 100 µM
- TGI [17]: > 100 µM
- TGI [18]: > 100 µM
- TGI [19]: > 100 µM
- TGI [20]: > 100 µM

SMILES: COC(=O)CCC(NC(=O)OC(C)(C)C)C(=O)NC(Cc1ccc([N+](=O)[O-])cc1)C(=O)NC(CCC(=O)OC)C(=O)OC (stereo not given) (Boc-Glu(OMe)-[Phe(4-NO2)]-Glu(OMe)-OMe; configuration not given here)
- TGI [1]: > 100 µM
- TGI [2]: > 100 µM
- TGI [3]: > 100 µM
- TGI [4]: > 100 µM
- TGI [5]: > 100 µM
- TGI [6]: > 100 µM
- TGI [7]: 67.3 µM
- TGI [8]: > 100 µM
- TGI [9]: 25.3 µM
- TGI [10]: > 100 µM
- TGI [11]: 80.9 µM
- TGI [12]: 51.6 µM
- TGI [13]: > 100 µM
- TGI [14]: > 100 µM
- TGI [15]: > 100 µM
- TGI [16]: > 100 µM
- TGI [17]: > 100 µM
- TGI [18]: > 100 µM
- TGI [19]: > 100 µM
- TGI [20]: > 100 µM

SMILES: COCCOC1=C(Cl)C(=O)c2c(O)ccc(O)c2C1=O
- TGI [1]: 3.24 µM
- TGI [2]: 5.46 µM
- TGI [3]: 2.6 µM
- TGI [4]: 4.34 µM
- TGI [5]: 9.94 µM
- TGI [6]: 3.32 µM
- TGI [7]: 1.75 µM
- TGI [8]: 8.34 µM
- TGI [9]: 4.85 µM
- TGI [10]: 3.08 µM
- TGI [11]: 13.9 µM
- TGI [12]: 3.19 µM
- TGI [13]: 11.5 µM
- TGI [14]: 2.96 µM
- TGI [15]: 2.17 µM
- TGI [16]: 7.7 µM
- TGI [17]: 8.5 µM
- TGI [18]: 17.2 µM
- TGI [19]: 14.5 µM
- TGI [20]: 5.15 µM

SMILES: COc1ccc2c(c1)/C(=C\c1c(Cl)n(-c3ccccc3)c3ccccc13)C(=O)N2
- TGI [1]: 84.4 µM
- TGI [2]: 41.6 µM
- TGI [3]: 14.6 µM
- TGI [4]: 41.4 µM
- TGI [5]: 33.6 µM
- TGI [6]: 25.3 µM
- TGI [7]: 45.4 µM
- TGI [8]: 5.28 µM
- TGI [9]: 50.8 µM
- TGI [10]: 6.78 µM
- TGI [11]: 52.2 µM
- TGI [12]: > 100 µM
- TGI [13]: 57.5 µM
- TGI [14]: 45.1 µM
- TGI [15]: 19.3 µM
- TGI [16]: 14.2 µM
- TGI [17]: 7.98 µM
- TGI [18]: 68.2 µM
- TGI [19]: 51.1 µM
- TGI [20]: 21.3 µM
